Assay results from article PMC4838890, “Dynamic and flexible H3K9me3 bridging via HP1β dimerization establishes a plastic state of condensed chromatin” (Nature Communications, 2016).

What was measured:
H3K9me3 oligonucleosomes [1] = assay: Chromatin sedimentation (clustering), H3K9me3 oligonucleosomes; format: biochemical, Xenopus laevis; details: for chromatin clustering/aggregation, H3K9me3: saturating protein (5 μM) or titration, EtBr fluorescence, n=3
Procedure: Figure 3 hHP1β clusters oligonuclesomal arrays in dependence of H3K9me3. (a) Oligonucleosomes (2.5 nM) were incubated with increasing concentrations of hHP1β WT or I161A at 150 mM NaCl. DNA remaining in the supernatant after centrifugation was incubated with EtBr and measured by fluorescence reading. Data were normalized to amounts in absence of added protein. Averages of three independent experiments are plotted; error bars represent s.d.; n=3. (b) Analysis of the hydrodynamic radius of oligonucleosomes (10 nM; DNA labelled with ATTO 610) in the presence of increasing concentrations of hHP1β WT or I161A by FCS at 150 mM NaCl. For details on experimental setup see Supplementary Fig. 3. Error bars represent s.d.; n=3. (c) Oligonucleosomes were reconstituted after mixing H3K9me0 and H3K9me3 octamers at different ratio. Chromatin precipitation analysis at 150 mM NaCl was carried out with hHP1β WT at saturating concentration. Data are presented as in a. (d) Precipitation behaviour of oligonucleosomes (2.5 nM) was analysed at different concentrations of NaCl with hHP1β WT at saturating concentration. Data are presented as in a. (e) H3K9me3-containing chromatin was reconstituted using wild-type core histones or tailless H2A, H2B or H4. Oligonucleosomes (2.5 nM) were incubated with increasing concentrations of hHP1β WT at 150 mM NaCl. Data are presented as in a. (f) Chromatin coprecipitation of hHP1β with H3K9me3-containing oligonucleosomes reconstituted with wild-type or tailless core histones at the indicated concentrations of MgCl2. Precipitated material was analysed by western blotting. The region of the western blot membrane of the experiment at 7.5 mM MgCl2 containing histones was stained with Ponceau. (g) Oligonucleosomes at 50 mM NaCl were incubated with hHP1β WT or I161A. Complexes were fixed with 0.05% (v/v) glutaraldehyde, spotted on mica surfaces and analysed by scanning force microscopy. Control, no protein added; scale bar, 100 nm. (h) Quantification of results representatively shown in g according to the classification on the top: A, extended; B, partially condensed; C, fully condensed; D; aggregates; n>50 for each condition.
For saturating conditions, 2.7 nM oligonucleosomes were incubated with 5 μM hHP1β proteins in 100 μl sedimentation buffer (10 mM triethanolamine (pH 7.5), 150 mM NaCl, 0.1 mM EDTA) for 1 h on ice. For non-saturating conditions, 3 μM recombinant proteins were used and the NaCl concentration in the sedimentation buffer was lowered to 100 mM. After incubation, 40 μl per sample was placed into a well of a 96-well plate and kept as ‘input'. The rest was centrifuged at 16,100g for 30 min at 4°C. 40 μl supernatant was carefully removed and placed into a 96-well plate (‘output'). For quantification of chromatin DNA, the input and output samples were incubated with 40 μl 0.5 μg ml^−1 ethidium bromide and fluorescence was measured on a Plate CHAMELEON II fluorescence plate reader (Hidex, Turku, Finland) using a 360 nm (±5 nm) excitation filter and a 612 nm (±5 nm) emission filter. For each sample the ratio of DNA concentrations after and before centrifugation (output/input) was calculated.
Supplementary Table 1: Summary of conditions used in the different experiments of this study. experiment result modification template Temp. [NaCl] [MgCl2] […]
chromatin Fig. 1e,f; Fig. S1f-h; H3K9me3 oligo- 4 150 5 coprecipitation Fig. S2b nucleosomes
Fig. S7d,f; Fig.S9c nucleosomes […]
chromatin sedimentation Fig. 4a; H3K9me3 oligo- 4 150 0
(single point) Fig. S3b nucleosomes […]
chromatin sedimentation. oligo-(titration) Fig. 3a H3K9me3 nucleosomes 4 150 0 […]
crosslinking Fig. S6e,f nucleosomes […]
crosslinking Fig. S7a,b nucleosomes
EMSA Fig. 1g; Fig. 5c; n//a RT 100 5
1Preincubation of oligonucleosomes and h HP1β was performed at 4 °C . Measurements wer e carried out at the in dicated te mperature.
2in increments o f 0 .5 mM
3MgCl2 was added at the end of incubation to coprecipitate oligonucleosomes a nd bound hHP1β.

H3K9me3 oligonucleosomes [2] = assay: Scanning force microscopy; format: biochemical, Xenopus laevis; details: 50 mM NaCl
Procedure: Nucleosomal arrays and recombinant hHP1β were dialyzed against SFM buffer (5 mM triethanolamine (pH7.5), 50 mM NaCl, 0.1 mM EDTA). The recombinant proteins at different concentrations (between 0 and 5 μM) were preincubated with oligonucleosomes at a DNA concentration of 50 ng ml^−1 in SFM buffer for 1 h at 4°C, and the samples were fixed with 0.05% (v/v) fresh glutaraldehyde (Electron Microscopy Sciences, PA, USA) at 4°C overnight. Fixed samples were extensively dialyzed against TEAE buffer (5 mM triethanolamine (pH 7.5), 0.1 mM EDTA). 10 μl of dialyzed sample was deposited on ca. 1 cm^2 of freshly cleaved mica (Plano). After 5 min incubation at RT, the mica was washed with 200 μl of water (high-performance liquid chromatography grade) and air-dried. Images were recorded in air on a Nanoscope V Multi Mode scanning force microscope (Veeco, NY, USA) using an ‘E'-scanner with maximum scan size of 15 × 15 μm and silicon-etched probe tips with a typical spring constant of 40 N m^−1 and a typical resonance frequency of 325 kHz (NSC15, MikroMasch) in tapping mode. […]

Row | Substance | concentration sufficient for maximal chromatin clustering (H3K9me3 oligonucleosomes [1]; 150 mM NaCl) | EC50 (H3K9me3 oligonucleosomes [1]; 150 mM NaCl, 4°C, read-out: half-maximal effect, chromatin precipitation assay) | chromatin clustering/aggregation, H3K9me3 (H3K9me3 oligonucleosomes [1]; 150 mM NaCl) | salt concentration above which hHP1β induces clustering (H3K9me3 oligonucleosomes [1]; salt titration, saturating hHP1β WT, 2.5 nM oligonucleosomes) | reversibility of aggregation (H3K9me3 oligonucleosomes [1]; stepwise precipitation and resolubilization) | structures observed by SFM (H3K9me3 oligonucleosomes [2]; 0.5 μM protein) | structures observed by SFM (H3K9me3 oligonucleosomes [2]; 5 μM protein) | frequency of condensed chromatin fibres and large clusters, H3K9me0 (H3K9me3 oligonucleosomes [2]; H3K9me0 chromatin, n>50) | chromatin clustering/aggregation, H3K9me3 (H3K9me3 oligonucleosomes [1]; 150 mM NaCl, listed as I161A) | frequency of condensed chromatin fibres and large clusters (H3K9me3 oligonucleosomes [2]; H3K9me3 chromatin, n>50)
1 | hHP1β WT: recombinant human heterochromatin protein 1β (GenBank NM_001127228), 185 aa | 5 µM | 400 nM | efficiently aggregated H3K9me3 | above 50 mM NaCl | generally reversible | individual but highly condensed H3K9me3 chromatin species | larger clusters that must contain multiple oligonucleosomes were visible | much lower for H3K9me0 chromatin with hHP1β WT |  | 
2 | hHP1β I161A: CSD point mutant of hHP1β incapable of dimerization |  |  | failed to induce the aggregation of oligonucleosomes |  |  |  |  |  | neither the I161A mutant, nor the isolated CD or CSD had any effect on modified or unmodified chromatin | much lower
